The results in this text go back to paper PMC12907944, “Targeting RAD51-BRCA2 Interaction to Enhance Synthetic Lethality with Olaparib in Pancreatic Cancer: Development of a Novel Phenyl Furan-Quinoline-Carboxylic Acid Series” (ACS Medicinal Chemistry Letters, 2026).

Data set [1] concerns RAD51 foci formation in BxPC-3 cells. Briefly: RAD51 foci immunofluorescence after cisplatin. The data set is classed as cell-based, human.
In another data set the test system is BxPC-3 cells. Briefly: cell viability (CellTiter-Glo), combination with olaparib, Interaction Index. The data set is classed as cell-based, human. The note with it: for Combination studies with olaparib: combination effect: BxPC-3 cells. In general terms: ATP-based viability assays read luminescence as a measure of living cells.
The test system of data set [2] is homologous recombination in BxPC-3 cells. Briefly: HR Quick Assay (HR-QA). As to conditions: Homo sapiens. The data set is classed as cell-based.
Data set [3] has as its system homologous recombination in HEK-293 cells. Briefly: m-Clover Lamin A assay (mCl-HR). The data set is classed as cell-based, human.
The subject of the next data set is BxPC-3 3D spheroids. Briefly: 3D spheroids cell viability (MTT) and volume. The note with it: BxPC-3 spheroids, 60 μM compound alone. The data set is classed as cell-based, human.
Another data set can be described thus: kinetic solubility. The data set is classed as physicochemical. The note with it: PBS, aqueous buffer, kinetic from dmso stock.
The test system of the next data set is γ-H2AX in BxPC-3 cells. Briefly: γ-H2AX immunofluorescence. The data set is classed as cell-based, human. The note with it: BxPC-3, 72 h, 19 + ola combination.
The subject of data set [4] is normal pancreatic epithelial H-6037 cells. Briefly: cell viability, combination with olaparib. The data set is classed as cell-based, human. The note with it: 19/ola combination, 6-day.

SMILES strings stand for the structures. ≈ marks a conversion by molar mass, not a printed value. Bounds are passed on as bounds.

Description for BxPC-3 3D spheroids: multiwell plates, grown for 96 h to allow spheroids formation and treated for 144 h as previously indicated.
Brightfield imaging of 3D spheroids was performed
at 0, 48, 96 and 144 h treatment timings to determine spheroid volume change.

In data set [1] (BxPC-3, CPL alone (50 μM cisplatin)), `N.N.[Cl][Pt][Cl]` [CPL, cisplatin, reference compound] had an RAD51-labelled nuclei of 56%.

Turning to `CCc1ccc2nc(-c3ccc(-c4ccccc4)o3)cc(C(=O)O)c2c1` [Compound 16], in the data set on BxPC-3 cells (BxPC-3, compound alone at 40 µM), the cell viability reduction was 40%. Moreover, the “Combination studies with olaparib: combination effect” value (from here on “Combination studies with olaparib”) with BxPC-3 cells (144 h) is reported as “additive (a result ranging from 0.8 to 1.2 denotes an additive effect)”. Besides, in data set [2] (BXPC-3, maximum inhibition), the inhibition at 80 µM turned out to be 76%.

For the compound `COc1ccc2nc(-c3ccc(-c4ccccc4)o3)cc(C(=O)O)c2c1` [Compound 19], the mClover-positive cells in data set [3] (HEK-293, 40 μM) is ~4%. The inhibition at 40 µM in data set [3] (Homo sapiens, HEK293, HEK-293, 40 μM) was ~74%. For the same compound, in the data set on BxPC-3 cells (BxPC-3, Table S2), the “Combination w/ola in BxPC-3 cells” value was “Synergism”. Moreover, the “impact on spheroid volume” value in the data set on BxPC-3 3D spheroids is given as “no significant impact”. Further, the RAD51-labelled nuclei in data set [1] (BxPC-3, 19 and CPL (50 μM cisplatin)) is reported as 22%. In addition, the kinetic solubility in “kinetic solubility” was > 250 µM. Further, the γ-H2AX-labelled nuclei with γ-H2AX in BxPC-3 cells is listed as > 40%. In addition, the inhibition at 80 µM in data set [2] (BXPC-3, maximum inhibition) turned out to be 81%. In data set [2] (multiple-dose HR-QA), the IC50 came out at 21.7 ± 1.81 µM. Besides, in data set [4], the “effect on cell viability of normal cells” value is listed as “no significant effect”.

With `Cc1ccc2nc(-c3ccc(-c4ccccc4)o3)cc(C(=O)O)c2c1` [Compound 4], the “Combination studies with olaparib” value in the data set on BxPC-3 cells (144 h) is recorded as “additive (a result ranging from 0.8 to 1.2 denotes an additive effect)”. The inhibition at 80 µM in data set [2] (BXPC-3, maximum inhibition) was 63%.

Consider `Cc1ccc2nc(-c3ccc(-c4ccccc4C(=O)O)o3)cc(C(=O)O)c2c1` [Compound 1], for which the “Combination studies with olaparib” value with BxPC-3 cells (144 h) was “additive (a result ranging from 0.8 to 1.2 denotes an additive effect)”. Besides, the kinetic solubility in “kinetic solubility” was 234 ± 9 µM (≈ 87.4 µg/mL). Besides, the inhibition at 100 µM in data set [2] (BXPC-3, at 100 μM) is 4%. Also, in data set [2] (BXPC-3, maximum inhibition, at 50 μM), the inhibition at 50 µM amounted to 35%.

Take `Cc1ccc2nc(-c3ccc(-c4ccccc4)s3)cc(C(=O)O)c2c1` [Compound 20]: the cell viability reduction result with BxPC-3 cells (BxPC-3, 5 µM compound in combination with olaparib, 144 h) is “≈ 40%”. For the same compound, the “Combination studies with olaparib” value in the data set with BxPC-3 cells (144 h) was “additive (a result ranging from 0.8 to 1.2 denotes an additive effect)”. Also, in data set [2] (BXPC-3, maximum inhibition), the inhibition at 20 µM was 89%.

Turning to `Cc1ccc2nc(-c3ccc(-c4ccccc4F)o3)cc(C(=O)O)c2c1` [Compound 8], the inhibition at 60 µM in data set [2] (BXPC-3, maximum inhibition, at 60 μM) was 39%.

Regarding `O=C(O)c1cc(-c2ccc(-c3ccccc3)o2)nc2ccc(O)cc12` [Compound 18], the inhibition at 20 µM in data set [2] (BXPC-3, maximum inhibition) was ≤ 60%.

Consider `Nc1ccc2nc(-c3ccc(-c4ccccc4)o3)cc(C(=O)O)c2c1` [Compound 17], for which the “Combination studies with olaparib” value in the data set on BxPC-3 cells (144 h) is “additive (a result ranging from 0.8 to 1.2 denotes an additive effect)”. Moreover, in data set [2] (BXPC-3, maximum inhibition), the inhibition at 20 µM stood at 77%.

The inhibition is the share of the control response that was lost under treatment. As a reminder, the kinetic solubility is the concentration staying in solution when a stock, usually in DMSO, is diluted into the medium. By IC50 is commonly meant the concentration that inhibits the measured activity by half.
